Data from paper PMC12818745 (ACS Chemical Neuroscience, 2025).

System: Aβ42 aggregates in SH-SY5Y (SHwt) cells
Test: Confocal microscopy (ThT) of Aβ42 aggregates in SH-SY5Y cells expressing APP695
Conditions: 25 μM compound with Aβ42 10 μM, 48 h
Protocol: A stock solution of Aβ42 (GenScript) was prepared in DMSO to a concentration of 2000 μM. SH-SY5Y cells stably expressing wild-type APP695 (SHwt) were used. The cells were cultured in Dulbecco’s Modified Eagle Medium (DMEM, Gibco), supplemented with 10% of Fetal Bovine Serum (FBS, Sigma-Aldrich), and 2% of Pen-Strep-Glut (Gibco). […] 2.0 × 10^4 SH-WT cells were plated in 24-well plates and incubated for 24 h, in 12 ømm glass coverslips. […] Cells incubated with Aβ42 and 1% DMSO were used as the positive control. After this period, the medium was changed to fresh DMEM medium without FBS, and the cells were incubated for another 24 h. After the incubation period, cells were washed with PBS, fixed in 4% formaldehyde for 30 min, permeabilized with 0.2% Triton X-100 in PBS for 10 min and blocked with 1% BSA for 10 min. […] Cells were washed three times between each step. Coverslips with cells were mounted with CitiFluor MWL4–88 (Electron Microscopy Sciences).

COc1ccc2c(=O)c3cc4c(cc3oc2c1)-c1cc(Cl)ccc1OC4 [Compound 11r, 2-Chloro-11-methoxy-6H,8H-chromeno[3,4-b]xanthen-8-one]
Reduction in intracellular Aβ42 aggregates (ThT fluorescence): approximately 70%
